Experimental data as given in patent US8097238B2, “Cell targeting conjugates” (Peter MacCallum Cancer Institute, priority 2004, dated 2012).
“And” between values parts separate entries of the source, which are not always exact repeats. Equal values may be shown once. Starred links: 1 amine or outer side, 2 acyl side, 3 side chain; linkers in the order of their positions; H or OH if unused. Positions of bridges follow the written chain, without caps; N, C: chain ends. Non-standard residues stand in square brackets, D forms with d. Residues, ends and D or L forms follow the SMILES beside them. Chains are numbered I, II in the order given. Actinocin(9to1) = Cc1c2oc3c(C)ccc(C(=O)[*:1])c3nc-2c(C(=O)[*:2])c(N)c1=O; NMeV = CN[C@H](C(=O)O)C(C)C; Sar = CNCC(=O)O

Columns and labels:
DNA = settings: literature values; cited from earlier work
plasmid DNA [1] = assay: Plasmid DNA breakage, ^124I/^125I double isotope experiments; assay type: biochemical
Source text: In experiments exactly analogous to those described in Example 25, induction of DNA double-strand breaks was investigated for ^124I-iodoHoechst 33258. The results of preliminary experiments (to our knowledge the first such experiments done with DNA-associated ^124I) are shown in FIG. 15 and Table 4.

plasmid DNA [2] = assay: Plasmid DNA breakage, ^123I/^125I double isotope method; assay type: biochemical
Source text: The experimental design exploits the plasmid DNA assay system, and agarose gel electrophoresis, as described previously to evaluate DNA breakage by the labelled minor groove binding DNA ligand, ^125I-iodoHoechst 33258 (Lobachevsky, Karagiannis and Martin 2004).
The accumulation of DNA single-stranded breaks and DNA double-stranded breaks is monitored by quantitation of the decline in the fraction of intact supercoiled plasmid (S), and the corresponding increase in the fractions of relaxed (R) and linear (L) species, with the progressive accumulation of decay events. Various assumptions enable the derivation of the relationship between the parameters S, R and L (or their normalised counterparts S′, R′ and L′), the number of decay events (n), and for example, the yield of double-stranded breaks per decay (d) of isotope in DNA-bound ligand. […] Accordingly, a double isotope strategy was developed, using a mixture of ^123I- and ^125I-iodoHoechst 33258. This approach yields a ratio d values, providing an estimate of the relative efficiency (^123I relative to ^125I) for double-strand breaks per decay, which is independent of f.
The basis of the double isotope method is apparent from the following relationship:
Where n1 is the number of ^123I decays, and n1m is the maximum (ie at time=infinity) number of ^123I decays.
A plot of the LHS term of the above equation versus n2 (the number of ^125I decay events in the incubation mixture) yields a two phase curve, the 2nd phase of which approaches a straight line (when n1=n1m). The values for the apparent breakage DNA dsb efficiency of ^123I and ^125I decays (da1 and da2, respectively) are obtained from the y intercept and from the gradient of the asymptote of the second phase of the curve, as shown in FIG. 14.
The apparent breakage efficiency is related to the actual efficiency of DNA-bound decay events, d, by the expression: da=df+δA
Where δA is the term for the “external” component of damage, arising from decay of non-DNA-bound isotope, which can be ignored because of the particular conditions of the
[formula] experiment, particularly, a low DNA concentration, A. Thus analysis of the data as exemplified in FIG. 14 provides the ratio of breakage efficiencies of ^123I versus ^125I decays.

K562 cells [3] = settings: survival curve studies (Karagiannis, Lobachevsky and Martin 2000); cited from earlier work
K562 cells [4] = assay: Accumulation of cell-associated ^125I-activity in K562 cells; assay type: cell-based, human; settings: 200 nM protein, 37° C.
Protocol: At the required time intervals (0-20 hours), the cell-associated and extracellular ^125I-ligands were separated by centrifugation at 400×g for 3 minutes and the cell-associated ^125I-activity and the ^125I-activity in the supernatants were counted in a […] (80% counting efficiency; Perkin Elmer Inc.). To elucidate whether the meta-^127I/^125I-iodoHoechst-transferrin conjugates were internalized specifically via transferrin receptor mediated endocytosis, assays were performed in parallel in the presence of 100-fold molar excess of unlabelled diferric transferrin.
In parallel with the experiment described in Example 19, cultures of K562 cells with one of the three labeled DNA ligand—transferring conjugates were incubated at 0° C., a condition that inhibits receptor-mediated endocytosis. Other assays were performed in parallel at 37° C. in the presence of the metabolic inhibitors […] (50 mM) and sodium azide (0.1% (w/v)), which are known to inhibit transferrin receptor mediated endocytosis (Ciechanover, et al. 1983).

K562 nuclei [5] = assay: Accumulation of nuclear-associated ^125I-activity in K562 nuclei; assay type: cell-based, human; settings: 200 nM protein, 37° C.
Protocol: After incubation for 5 minutes at 0° C., an equal volume of hypotonic buffer containing 1% (v/v) Triton X-100 was added while vortexing, and the cells were sheared by passage through a 22-gauge needle. The nuclei were separated from the cytosol by centrifugation at 1000×g for 10 minutes and the nuclear preparations were washed in hypotonic buffer and pipetted to avoid clumping. The concentration of nuclei isolated from each sample was determined by counting with a hemocytometer and the nuclear- and cytoplasm-associated ^125I-activity was determined by β-counting. In parallel assays, the nuclei were washed with 10 mM Tris-HCl, 140 mM NaCl, pH 8.3 (isotonic buffer) by centrifugation at 1000×g for 10 minutes and the nuclear associated ^125I-activity and the ^125I-activity in the supernatants was determined by β-counting.

K562 cells [6] = assay: Clonogenic survival of K562 cells after ^125I-ligand incubation; assay type: cell-based, human; settings: 20 hours at 37° C., 200 nM protein
Protocol: K562 cells were washed three times in serum-free RPMI 1640 containing 20 mM HEPES and 80 I.U./ml gentamicin. In the representative experiment, cells (5×10^5 per ml) were incubated with a series of radioactive doses of ^125I-diferric transferrin (highest dose 3.8 μCi/ml; specific activity 18.9 Ci/mmole, 200 nM protein concentration) or with a series of radioactive doses of the required meta-^127I/^125I-iodoHoechst-transferrin conjugate (highest doses 17.5, 10.1 and 18.3 μCi/ml, specific activities 87.5, 53.3 and 98 Ci/mmole protein for the disulphide, acylhydrazone and amide linked meta-^127I/^125I-iodoHoechst-transferrin conjugates, respectively, protein concentration 200 nM, conjugation number 2.8, 2.9 and 3.1 for the disulphide, acylhydrazone and amide linked conjugates, respectively) for 20 hours at 37° C. To ensure that cytotoxicity was mediated by decay of ^125I, control assays were performed in parallel with unlabelled meta-^127I-iodoHoechst-transferrin conjugates. Furthermore, to determine whether the ^125I-induced cytotoxicity was mediated by transferrin receptor-mediated endocytosis, control assays were performed in parallel in the presence of a 50-fold molar excess of unlabelled diferric transferrin. Following incubation, the cell-pellets were isolated by centrifugation at 400×g for 3 minutes and suspended in the α-modification of Eagle's medium containing 20% (v/v) fetal bovine serum, 20 mM HEPES, 2 mM L-glutamine and 80 I.U./ml gentamicin. An appropriate cell number from each of the samples was then cloned in semi-solid (0.33% (w/v)) noble agar in 6-well microtiter plates.

K562 nuclei [7] = assay: Nuclear fluorescence of K562 cells after photolytic deiodination (quantitative fluorescence microscopy); assay type: cell-based, human
Protocol: The delivery of ortho-iodoHoechst to K562 nuclei following incubation of cells with the acylhydrazone linked transferrin-ortho-iodoHoechst conjugate was examined by quantitative fluorescence microscopy, after photolytic deiodination. K562 cells in RPMI 1640 containing 3% FBS, 20 mM HEPES and 80 I.U./ml gentamicin were incubated with the acylhydrazone linked conjugate ([…], conjugation number 1.5) for 24 hours at 37° C. Following incubation the cells were irradiated with 200 Jm^−2 UVA to generate in situ the dehalogenated ligand, which is much more fluorescent than the iodinated ligand. The cells were then washed by centrifugation and the cell-pellet was resuspended in 50 μl PBS without Ca^2+/Mg^2+. Aliquots (20 μl) were placed onto microscope slides and were allowed to air-dry. Prior to microscopy a drop of 30% PBS and 100 μM dithiothreitol in Tissuetek was added to the cells. K562 cells were observed using a fluorescence microscope (Zeiss) and a standard Hoechst filter set. Analysis of nuclear fluorescence was performed using a Bio-Rad Molecular Imager® Fx (Bio-Rad Laboratories, Hercules, Calif., USA) and Quantity One™ 4.1.1 software.

[8] = incubation period between 4-20 hours

## Cc1c2oc3c(C)ccc(C(=O)N[C@@H]4C(=O)N[C@H](C(C)C)C(=O)N5CCC[C@H]5C(=O)N(C)CC(=O)N(C)[C@@H](C(C)C)C(=O)O[C@@H]4C)c3nc-2c(C(=O)N[C@@H]2C(=O)N[C@H](C(C)C)C(=O)N3CCC[C@H]3C(=O)N(C)CC(=O)N(C)[C@@H](C(C)C)C(=O)O[C@@H]2C)c(N)c1=O [Actinomycin D] (I: T[dV]P[Sar][NMeV] / II: T[dV]P[Sar][NMeV]; ester I:1-I:C, II:1-II:C; linker I:N-II:N via Actinocin(9to1))
DNA
  association constant for equilibrium binding to DNA (affinity): about 10^6 M^−1

## CN1CCN(c2ccc3nc(-c4ccc5nc(-c6ccc(O)c(I)c6)[nH]c5c4)[nH]c3c2)CC1 [^124I-iodoHoechst 33258]
Plasmid DNA [1]; compared with the ^123I counterpart
  efficiency of DNA-associated decays in DNA double-strand break induction: at least as efficient as those of the ^123I counterpart
Plasmid DNA [1]; preliminary experiments
  da1(^124I)/da2(^125I): 0.76 and 0.71 and 0.82 and 0.75
Plasmid DNA [1]; samples A2, A3, B1, B2
  Average da1(^124I)/da2(^125I): 0.76 ± 0.05

## CN1CCN(c2ccc3nc(-c4ccc5nc(-c6ccc(O)c(I)c6)[nH]c5c4)[nH]c3c2)CC1 [^125I-iodoHoechst 33258, reference compound]
Plasmid DNA [2]; DMSO added to 10% (D series)
  da2(^125I), apparent DNA dsb breakage efficiency: 0.252 and 0.248 and 0.258
Plasmid DNA [2]; aqueous buffer (N series)
  da2(^125I), apparent DNA dsb breakage efficiency: 0.413 and 0.397 and 0.474
K562 cells [3]
  decays corresponding to a lethal event: about 130 ^125I decays per nucleus

## COc1cccc2c1C(=O)c1c(O)c3c(c(O)c1C2=O)C[C@@](O)(C(=O)CO)C[C@@H]3O[C@H]1C[C@H](N)[C@H](O)[C@H](C)O1 [doxorubicin]
DNA
  association constant for equilibrium binding to DNA (affinity): about 10^6 M^−1

## ^125I-transferrin: ^125I-labelled human diferric transferrin, unconjugated comparator [reference compound]
K562 cells [4]; after first 2 hours until approximately 4-5 hours
  rate of increase of cell-associated ^125I-activity: approximately 0.8 fmoles ^125I-ligand/cell/minute
K562 cells [4]; approximately the first 2 hours of incubation
  rate of increase of cell-associated ^125I-activity: approximately 5.2 fmoles ^125I-ligand/cell/minute
K562 cells [4]; incubation period between 5-20 hours
  rate of decrease in cell-associated ^125I-activity: approximately 0.2 fmoles ^125I-ligand/cell/minute
K562 nuclei [5]
  accumulation of ^125I-activity in the nuclei: not observed
K562 cells [6]
  dose required to produce on average one lethal event per cell (D37): 31.8 μCi/ml

## acylhydrazone linked meta-^127I/^125I-iodoHoechst-transferrin conjugate: meta-^127I/^125I-iodoHoechst conjugated to thiolated transferrin via an acylhydrazone linkage (Example 15, FIG. 3)
K562 cells [4]; first 4 hours of incubation
  rate of increase of cell-associated ^125I-activity: ~10.4 fmoles ^125I-ligand/cell/minute
K562 cells [4]; [8]
  rate of increase of cell-associated ^125I-activity: ~5.7 fmoles ^125I-ligand/cell/minute
K562 nuclei [5]
  rate of increase of nuclear-associated ^125I-activity: 0.38 fmole ^125I-ligand/cell/minute
K562 cells [6]
  dose required to produce on average one lethal event per cell (D37): 3.8 μCi/ml

## acylhydrazone linked transferrin-ortho-iodoHoechst conjugate: transferrin linked to ortho-iodoHoechst via an acylhydrazone linkage, conjugation number 1.5
K562 nuclei [7]; conjugation number 1.5, 24 hours at 37° C., then 200 Jm^−2 UVA
  nuclear fluorescence in K562 cell nuclei: significant fluorescence
K562 nuclei [7]; in the presence of 100-fold molar excess unmodified transferrin
  inhibition of nuclear fluorescence: largely inhibited

## amide linked meta-^127I/^125I-iodoHoechst-transferrin conjugate: meta-^127I/^125I-iodoHoechst conjugated to transferrin via an amide linkage (Example 16, FIG. 4)
K562 cells [4]; first 4 hours of incubation
  rate of increase of cell-associated ^125I-activity: ~3.6 fmoles ^125I-ligand/cell/minute
K562 cells [4]; [8]
  rate of increase of cell-associated ^125I-activity: ~2.6 fmoles ^125I-ligand/cell/minute
K562 nuclei [5]
  rate of increase of nuclear-associated ^125I-activity: 0.13 fmole ^125I-ligand/cell/minute
K562 cells [6]
  dose required to produce on average one lethal event per cell (D37): 8.9 μCi/ml

## disulphide linked meta-^127I/^125I-iodoHoechst-transferrin conjugate: meta-^127I/^125I-iodoHoechst conjugated to thiolated transferrin via a disulphide linkage (Example 14, FIG. 2)
K562 cells [4]; first 4 hours of incubation
  rate of increase of cell-associated ^125I-activity: approximately 7.2 fmoles ^125I-ligand/cell/minute
K562 cells [4]; [8]
  rate of increase of cell-associated ^125I-activity: approximately 6.1 fmoles ^125I-ligand/cell/minute
K562 nuclei [5]
  rate of increase of nuclear-associated ^125I-activity: 0.21 fmole ^125I-ligand/cell/minute
K562 cells [6]
  dose required to produce on average one lethal event per cell (D37): 6.0 μCi/ml
